# Reference: the NIST ThermoML archive (doi:10.1016/j.tca.2016.06.022)
# Numbers after ± are expanded uncertainties.
# Columns and labels:
# [1] = 101 kPa, Liquid, Vibrating tube method
# [2] = xn = mol fraction of the nth substance listed; details: 101 kPa, Liquid, Vibrating tube method, x2 = 0
compound,measurement,setting,value
"NCCN [ethane-1,2-diamine]",mass density,[1]; 288.15 K,901.26 ± 0.51 kg/m3
same,mass density,[1]; 298.15 K,891.9 ± 0.51 kg/m3
same,mass density,[1]; 308.15 K,882.49 ± 0.51 kg/m3
same,mass density,[1]; 323.15 K,868.23 ± 0.51 kg/m3
same,mass density,[1]; 333.15 K,858.6 ± 0.52 kg/m3
O [water],mass density,[1]; 274.15 K,999.899 ± 0.5 kg/m3
same,mass density,[1]; 275.15 K,999.94 ± 0.5 kg/m3
same,mass density,[1]; 276.15 K,999.964 ± 0.5 kg/m3
same,mass density,[1]; 277.15 K,999.972 ± 0.51 kg/m3
same,mass density,[1]; 278.15 K,999.964 ± 0.5 kg/m3
same,mass density,[1]; 279.15 K,999.94 ± 0.5 kg/m3
same,mass density,[1]; 280.15 K,999.901 ± 0.5 kg/m3
same,mass density,[1]; 281.15 K,999.848 ± 0.5 kg/m3
same,mass density,[1]; 282.15 K,999.781 ± 0.5 kg/m3
same,mass density,[1]; 283.15 K,999.699 ± 0.5 kg/m3
same,mass density,[1]; 323.15 K,988.03 ± 0.5 kg/m3
same,mass density,[1]; 333.15 K,983.191 ± 0.5 kg/m3
O [water] + NCCN,mass density,[2]; 274.15 K,999.899 ± 0.5 kg/m3
same,mass density,[2]; 275.15 K,999.94 ± 0.5 kg/m3
same,mass density,[2]; 276.15 K,999.964 ± 0.5 kg/m3
same,mass density,[2]; 277.15 K,999.972 ± 0.51 kg/m3
same,mass density,[2]; 278.15 K,999.964 ± 0.5 kg/m3
same,mass density,[2]; 279.15 K,999.94 ± 0.5 kg/m3
same,mass density,[2]; 280.15 K,999.901 ± 0.5 kg/m3
same,mass density,[2]; 281.15 K,999.848 ± 0.5 kg/m3
same,mass density,[2]; 282.15 K,999.781 ± 0.5 kg/m3
same,mass density,[2]; 283.15 K,999.699 ± 0.5 kg/m3
same,mass density,[2]; 323.15 K,988.03 ± 0.5 kg/m3
same,mass density,[2]; 333.15 K,983.191 ± 0.5 kg/m3
